This note sets out measurements from ChEMBL document CHEMBL3045827, “High osmolar contrast medium causes mild oxidation in liver, bladder, and ovary tissues from rats: vitamin C has protective role” (2010).

The subject of assay [1] is Rattus norvegicus. Put plainly: Inhibition of ionic high-osmolar contrast medium-induced oxidative stress in Rattus norvegicus Wistar albino (rat) liver assessed as MDA level at 250 mg/kg/day administered through drinking water measured on 6th day by TBARS method (reference value: 0.579 +/- 0.129 %). Format: functional. Also noted: scale not given: the % may be the effect or the level left.

The subject of assay [2] is Rattus norvegicus. In words: Inhibition of ionic high-osmolar contrast medium-induced oxidative stress in Rattus norvegicus Wistar albino (rat) liver assessed as SOD activity at 250 mg/kg/day administered through drinking water measured on 6th day by NBT reduction method (reference value: 146.4 +/- 25.89 U/mg). In kind it is functional.
Assay [3] relates to Rattus norvegicus. Put plainly: Inhibition of ionic high-osmolar contrast medium-induced oxidative stress in Rattus norvegicus Wistar albino (rat) ovary assessed as MDA level at 250 mg/kg/day administered through drinking water measured on 6th day by TBARS method (reference value: 0.986 +/- 0.323 %). Format: functional, Female gonad. Also noted: scale not given: the % may be the effect or the level left.

In assay [4] the test system is Rattus norvegicus. Put plainly: Inhibition of ionic high-osmolar contrast medium-induced oxidative stress in Rattus norvegicus Wistar albino (rat) liver assessed as NO level at 250 mg/kg/day administered through drinking water measured on 6th day by Griess reaction method (reference value: 1.082 +/- 0.359%). Also noted: scale not given: the % may be the effect or the level left. Format: functional. A general note: Griess reagent forms a coloured azo dye with nitrite.

The subject of assay [5] is Rattus norvegicus. Put plainly: Inhibition of ionic high-osmolar contrast medium-induced oxidative stress in Rattus norvegicus Wistar albino (rat) liver assessed as catalase activity at 250 mg/kg/day administered through drinking water measured on 6th day (reference value: 119.8 +/- 13.43 IU). Format: functional.
For assay [6], the system named is Rattus norvegicus. In words: Inhibition of ionic high-osmolar contrast medium-induced oxidative stress in Rattus norvegicus Wistar albino (rat) bladder assessed as MDA level at 250 mg/kg/day administered through drinking water measured on 6th day by TBARS method (reference value: 1.180 +/- 0.803 %). In kind it is functional. Details: scale not given: the % may be the effect or the level left.

Assay [7] deals with Rattus norvegicus. In words: Inhibition of ionic high-osmolar contrast medium-induced oxidative stress in Rattus norvegicus Wistar albino (rat) liver assessed as GSH-Px activity at 250 mg/kg/day administered through drinking water measured on 6th day (reference value: 0.056 +/- 0.019 IU). In kind it is functional.
The subject of assay [8] is Rattus norvegicus. Put plainly: Inhibition of ionic high-osmolar contrast medium-induced oxidative stress in Rattus norvegicus Wistar albino (rat) liver assessed as NOS activity at 250 mg/kg/day administered through drinking water measured on 6th day (reference value: 0.208 +/- 0.031 mIU/ml). Format: functional.

For the compound `O=C1O[C@H]([C@@H](O)CO)C(O)=C1O` [ASCORBIC ACID], the Activity came to 0.49% in the assay with Rattus norvegicus [1]; 193.2 U/mg in the assay with Rattus norvegicus [2]; 0.762% in the assay on Rattus norvegicus [3]; 0.965% with Rattus norvegicus [4]; 118.9 IU with Rattus norvegicus [5]; 0.821% in the assay on Rattus norvegicus [6]. Moreover, the Activity is on record as 0.05 IU with Rattus norvegicus [7] and 0.224 mIU/ml in the assay with Rattus norvegicus [8].
